# Laboratory results as given in US9029337B2, “Modulation of factor 7 expression” (Isis Pharmaceuticals, Inc., priority 2007, dated 2015).
# Strand notation (5' to 3'): a small letter for the sugar, then the base; units joined by * are phosphorothioate-linked, units joined directly phosphodiester-linked; [ ] holds rarer units or linkages, { } end groups; capitals alone tell only the bases. e = 2'-O-(2-methoxyethyl) (MOE); [5mC] = 5-methylcytosine; d = 2'-deoxy (DNA)
# Test system: human Factor 7 mRNA
# Experiment: Antisense inhibition of human Factor 7 mRNA in HepB3 cells, 50 nM antisense oligonucleotide, lipofectin
# Format: cell-based
# Details: gapmers targeted to nucleobases 4868 to 4899 of SEQ ID NO: 1, Table 8
# In short: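 Seeding density was 4,000 cells per well. Following roughly 24 hours of oligonucleotide treatment, RNA was extracted and Factor 7 message quantified using the RTS 2927 primer probe set. Levels were corrected for RIBOGREEN® total RNA and expressed against untreated controls.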
row,Substance,% Inhibition of human Factor 7 mRNA levels
1,422298 (antisense eG*e[5mC]*d[5mC]*d[5mC]*dG*dA*dG*dT*dT*d[5mC]*dT*dG*d[5mC]*dA*dG*eG*eA*eG*e[5mC]*eG) [compound 422298],62%
2,422299 (antisense eA*eG*d[5mC]*d[5mC]*d[5mC]*dG*dA*dG*dT*dT*d[5mC]*dT*dG*d[5mC]*dA*eG*eG*eA*eG*e[5mC]) [compound 422299],64%
3,422300 (antisense eG*eA*dG*d[5mC]*d[5mC]*d[5mC]*dG*dA*dG*dT*dT*d[5mC]*dT*dG*d[5mC]*eA*eG*eG*eA*eG) [compound 422300],65%
4,422301 (antisense eG*eG*dA*dG*d[5mC]*d[5mC]*d[5mC]*dG*dA*dG*dT*dT*d[5mC]*dT*dG*e[5mC]*eA*eG*eG*eA) [compound 422301],67%
5,422302 (antisense eA*eG*dG*dA*dG*d[5mC]*d[5mC]*d[5mC]*dG*dA*dG*dT*dT*d[5mC]*dT*eG*e[5mC]*eA*eG*eG) [compound 422302],67%

# Same assay, conditions: lipofectin, 50 nM antisense oligonucleotide, approximately 24 hours, Factor 7 mRNA by real-time RT-PCR (RTS 2927), relative to untreated control
row,Substance,% Inhibition
1,416438 (antisense e[5mC]*eA*eG*eG*eA*dG*d[5mC]*d[5mC]*d[5mC]*d[5mC]*d[5mC]*dA*dT*dT*d[5mC]*eT*eG*eG*e[5mC]*eA) [compound 416438],63%
2,416446 (antisense eG*eG*eT*e[5mC]*eA*d[5mC]*dT*dG*d[5mC]*dA*dG*dT*dA*d[5mC]*dT*eG*e[5mC]*eT*e[5mC]*eA) [compound 416446],64%
3,416449 (antisense eT*eA*eG*eG*eT*dA*dT*dT*dT*dT*dT*d[5mC]*d[5mC]*dA*d[5mC]*eA*eT*eG*eG*eA) [compound 416449],68%
4,416455 (antisense e[5mC]*eG*e[5mC]*e[5mC]*eG*dG*d[5mC]*dT*d[5mC]*dT*dG*d[5mC]*dT*d[5mC]*dA*eT*e[5mC]*e[5mC]*e[5mC]*e[5mC]) [compound 416455],72%
5,416472 (antisense e[5mC]*eA*eG*e[5mC]*e[5mC]*dT*dT*dG*dG*d[5mC]*dT*dT*dT*d[5mC]*dT*e[5mC]*eT*e[5mC]*e[5mC]*eA) [compound 416472],76%

# Same assay, conditions: oligonucleotides targeted to nucleobases 13760 to 13789 of SEQ ID NO: 1 (Table 10)
row,Substance,% Inhibition (human Factor 7 mRNA levels)
1,416455 (antisense e[5mC]*eG*e[5mC]*e[5mC]*eG*dG*d[5mC]*dT*d[5mC]*dT*dG*d[5mC]*dT*d[5mC]*dA*eT*e[5mC]*e[5mC]*e[5mC]*e[5mC]) [compound 416455],51%

# Test system: human Factor 7 mRNA
# Experiment: Dose-dependent antisense inhibition of human Factor 7 in HepB3 cells, lipofectin
# Format: cell-based
# Details: Table 7, 6.25 nM, approximately 16 hours
# Protocol: Cells were plated at a density of 4,000 cells per well and treated with lipofectin reagent with 3.125 nM, 6.25 nM, 12.5 nM, 25 nM, 50 nM, and 100 nM concentrations of antisense oligonucleotide, as indicated in Table 3. After a treatment period of approximately 16 hours, RNA was isolated from the cells and Factor 7 mRNA levels were measured by real-time RT-PCR, as described herein. Human Factor 7 primer probe set RTS 2927 (forward sequence: […], incorporated herein as SEQ ID NO: 164; reverse sequence: […], incorporated herein as SEQ ID NO: 165; probe sequence: TGGGTGGTCTCCGCGGCCX, incorporated herein as SEQ ID NO: 166) was used to measure mRNA levels. Factor 7 mRNA levels were adjusted according to total RNA content as measured by RIBOGREEN®. Results are presented as percent inhibition of Factor 7, relative to untreated control cells.
# Cells were plated at a density of 4,000 cells per well and transfected using lipofectin reagent with 6.25 nM, 12.5 nM, 25.0 nM, 50.0 nM, and 100.0 nM concentrations of antisense oligonucleotide, as indicated in Table 7. After a treatment period of approximately 16 hours, RNA was isolated from the cells and Factor 7 mRNA levels were measured by real-time RT-PCR, as described herein. Human Factor 7 primer probe set RTS 2927 was used to measure mRNA levels. Factor 7 mRNA levels were adjusted according to total RNA content as measured by RIBOGREEN®. Results are presented as percent inhibition of Factor 7, relative to untreated control cells.
# Cells were plated at a density of 4,000 cells per well and transfected using lipofectin reagent with 3.125 nM, 6.25 nM, 12.5 nM, 25 nM, 50 nM, and 100 nM concentrations of antisense oligonucleotide, as specified in Table 14. After a treatment period of approximately 16 hours, RNA was isolated from the cells and Factor 7 mRNA levels were measured by quantitative real-time PCR. Human Factor 7 primer probe set RTS 2927 was used to measure mRNA levels. Factor 7 mRNA levels were adjusted according to total RNA content, as measured by RIBOGREEN®. Results are presented as percent inhibition of Factor 7, relative to untreated control cells.
row,Substance,percent inhibition of Factor 7
1,416438 (antisense e[5mC]*eA*eG*eG*eA*dG*d[5mC]*d[5mC]*d[5mC]*d[5mC]*d[5mC]*dA*dT*dT*d[5mC]*eT*eG*eG*e[5mC]*eA) [compound 416438],11%
2,416446 (antisense eG*eG*eT*e[5mC]*eA*d[5mC]*dT*dG*d[5mC]*dA*dG*dT*dA*d[5mC]*dT*eG*e[5mC]*eT*e[5mC]*eA) [compound 416446],25%
3,416449 (antisense eT*eA*eG*eG*eT*dA*dT*dT*dT*dT*dT*d[5mC]*d[5mC]*dA*d[5mC]*eA*eT*eG*eG*eA) [compound 416449],19%
4,416455 (antisense e[5mC]*eG*e[5mC]*e[5mC]*eG*dG*d[5mC]*dT*d[5mC]*dT*dG*d[5mC]*dT*d[5mC]*dA*eT*e[5mC]*e[5mC]*e[5mC]*e[5mC]) [compound 416455],28%
5,416472 (antisense e[5mC]*eA*eG*e[5mC]*e[5mC]*dT*dT*dG*dG*d[5mC]*dT*dT*dT*d[5mC]*dT*e[5mC]*eT*e[5mC]*e[5mC]*eA) [compound 416472],16%

# Same assay, conditions: Table 7, 12.5 nM, approximately 16 hours
row,Substance,percent inhibition of Factor 7
1,416438 (antisense e[5mC]*eA*eG*eG*eA*dG*d[5mC]*d[5mC]*d[5mC]*d[5mC]*d[5mC]*dA*dT*dT*d[5mC]*eT*eG*eG*e[5mC]*eA) [compound 416438],33%
2,416446 (antisense eG*eG*eT*e[5mC]*eA*d[5mC]*dT*dG*d[5mC]*dA*dG*dT*dA*d[5mC]*dT*eG*e[5mC]*eT*e[5mC]*eA) [compound 416446],24%
3,416449 (antisense eT*eA*eG*eG*eT*dA*dT*dT*dT*dT*dT*d[5mC]*d[5mC]*dA*d[5mC]*eA*eT*eG*eG*eA) [compound 416449],33%
4,416455 (antisense e[5mC]*eG*e[5mC]*e[5mC]*eG*dG*d[5mC]*dT*d[5mC]*dT*dG*d[5mC]*dT*d[5mC]*dA*eT*e[5mC]*e[5mC]*e[5mC]*e[5mC]) [compound 416455],44%
5,416472 (antisense e[5mC]*eA*eG*e[5mC]*e[5mC]*dT*dT*dG*dG*d[5mC]*dT*dT*dT*d[5mC]*dT*e[5mC]*eT*e[5mC]*e[5mC]*eA) [compound 416472],44%

# Same assay, conditions: Table 7, 25.0 nM, approximately 16 hours
row,Substance,percent inhibition of Factor 7
1,416438 (antisense e[5mC]*eA*eG*eG*eA*dG*d[5mC]*d[5mC]*d[5mC]*d[5mC]*d[5mC]*dA*dT*dT*d[5mC]*eT*eG*eG*e[5mC]*eA) [compound 416438],56%
2,416446 (antisense eG*eG*eT*e[5mC]*eA*d[5mC]*dT*dG*d[5mC]*dA*dG*dT*dA*d[5mC]*dT*eG*e[5mC]*eT*e[5mC]*eA) [compound 416446],50%
3,416449 (antisense eT*eA*eG*eG*eT*dA*dT*dT*dT*dT*dT*d[5mC]*d[5mC]*dA*d[5mC]*eA*eT*eG*eG*eA) [compound 416449],45%
4,416455 (antisense e[5mC]*eG*e[5mC]*e[5mC]*eG*dG*d[5mC]*dT*d[5mC]*dT*dG*d[5mC]*dT*d[5mC]*dA*eT*e[5mC]*e[5mC]*e[5mC]*e[5mC]) [compound 416455],64%
5,416472 (antisense e[5mC]*eA*eG*e[5mC]*e[5mC]*dT*dT*dG*dG*d[5mC]*dT*dT*dT*d[5mC]*dT*e[5mC]*eT*e[5mC]*e[5mC]*eA) [compound 416472],64%

# Same assay, conditions: Table 7, 50.0 nM, approximately 16 hours
row,Substance,percent inhibition of Factor 7
1,416438 (antisense e[5mC]*eA*eG*eG*eA*dG*d[5mC]*d[5mC]*d[5mC]*d[5mC]*d[5mC]*dA*dT*dT*d[5mC]*eT*eG*eG*e[5mC]*eA) [compound 416438],75%
2,416446 (antisense eG*eG*eT*e[5mC]*eA*d[5mC]*dT*dG*d[5mC]*dA*dG*dT*dA*d[5mC]*dT*eG*e[5mC]*eT*e[5mC]*eA) [compound 416446],69%
3,416449 (antisense eT*eA*eG*eG*eT*dA*dT*dT*dT*dT*dT*d[5mC]*d[5mC]*dA*d[5mC]*eA*eT*eG*eG*eA) [compound 416449],65%
4,416455 (antisense e[5mC]*eG*e[5mC]*e[5mC]*eG*dG*d[5mC]*dT*d[5mC]*dT*dG*d[5mC]*dT*d[5mC]*dA*eT*e[5mC]*e[5mC]*e[5mC]*e[5mC]) [compound 416455],78%
5,416472 (antisense e[5mC]*eA*eG*e[5mC]*e[5mC]*dT*dT*dG*dG*d[5mC]*dT*dT*dT*d[5mC]*dT*e[5mC]*eT*e[5mC]*e[5mC]*eA) [compound 416472],80%

# Same assay, conditions: Table 7, 100.0 nM, approximately 16 hours
row,Substance,percent inhibition of Factor 7
1,416438 (antisense e[5mC]*eA*eG*eG*eA*dG*d[5mC]*d[5mC]*d[5mC]*d[5mC]*d[5mC]*dA*dT*dT*d[5mC]*eT*eG*eG*e[5mC]*eA) [compound 416438],82%
2,416446 (antisense eG*eG*eT*e[5mC]*eA*d[5mC]*dT*dG*d[5mC]*dA*dG*dT*dA*d[5mC]*dT*eG*e[5mC]*eT*e[5mC]*eA) [compound 416446],64%
3,416449 (antisense eT*eA*eG*eG*eT*dA*dT*dT*dT*dT*dT*d[5mC]*d[5mC]*dA*d[5mC]*eA*eT*eG*eG*eA) [compound 416449],85%
4,416455 (antisense e[5mC]*eG*e[5mC]*e[5mC]*eG*dG*d[5mC]*dT*d[5mC]*dT*dG*d[5mC]*dT*d[5mC]*dA*eT*e[5mC]*e[5mC]*e[5mC]*e[5mC]) [compound 416455],87%
5,416472 (antisense e[5mC]*eA*eG*e[5mC]*e[5mC]*dT*dT*dG*dG*d[5mC]*dT*dT*dT*d[5mC]*dT*e[5mC]*eT*e[5mC]*e[5mC]*eA) [compound 416472],88%
